Results taken from paper PMC10388311, “Innovative Strategy toward Mutant CFTR Rescue in Cystic Fibrosis: Design and Synthesis of Thiadiazole Inhibitors of the E3 Ligase RNF5” (Journal of Medicinal Chemistry, 2023).
In brackets after ≈: the same amount, converted by molar mass. Where two headings read alike, the source gives them in different places.

How the values were obtained:
[1] = Solubility and aggregation in PBS buffer by NMR (SPAM filter, 1H 1D and WaterLOGSY); format: physicochemical; conditions: for solubility and aggregation in PBS (in words): NMR; for solubility at 20 µM / solubility at 50 µM / solubility at 100 µM / aggregation in PBS buffer by NMR / solubility: PBS pH 7.5, 1 μM ZnCl2, 1 mM DTT, 10% D2O, 1% DMSO-d6; for solubility at 100 µM: theoretical concentration 100 μM; for aggregation in PBS buffer by NMR: WaterLOGSY
Source text: Under these circumstances, it was decided to explore the solubility of all the synthetized compounds, regardless of their biological activities, to find a suitable candidate for the validation of our working hypothesis, i.e., that the compounds exert their activities by directly binding to RNF5. For that, we first calculated the predicted octanol/water partition coefficient (log Po/w) and the predicted aqueous solubility (log S) of all the analogues by QikProp (Schrödinger Release 2022-1: QikProp, Schrödinger, LLC, New York, NY, 2021, Table S1). […] To shrink down the number of compounds for solubility experiments, just the ones that had −2.0 < log Po/w < 6 and −6.5 < log S <0.5 values were selected. Among them, the PBS solubility was determined for five representative analogues: (i) 12 and 29 bearing different substituents on the benzyl group A; (ii) 34 and 40 showing the replacement of rings B and C with pyridine-4-yl moieties; (iii) 42 in which the N-phenylbenzamidine portion was replaced with a pyridine-2-yl moiety (Table 1).
All the NMR experiments were recorded at 298 K using a 5 mm CryoProbe QCI ^1H/^19F–^13C/^15N–D quadruple resonance, a shielded z-gradient coil, and an automatic sample changer SampleJet NMR system with temperature control. The solubility of the compounds were evaluated by ^1H 1D experiments and aggregation by WaterLOGSY, testing the compounds in buffer PBS pH 7,5, 1 μM ZnCl2, 1 mM DTT, 10% D2O (for the lock signal), and 1% DMSO-d6 at the theoretical concentrations of 20, 50, and 100 μM in the presence of 200 μM 4-trifluoromethyl benzoic acid (internal reference). For all samples, a 1D ^1H NMR experiment was recorded, the water suppression was obtained using the standard NOESY (nuclear Overhauser effect spectroscopy) preset Bruker pulse sequence, with 64k data points, a spectral width (sw) of 30 ppm, 64 scans, acquisition time (aq) of 1.835 s, a relaxation delay (d1) of 4 s, and a mixing time of 10 ms. […] The data were multiplied by an exponential window function with 1 Hz line broadening prior to Fourier transformation. For NMR binding experiments, the compounds were tested at 50 μM in buffer PBS pH 7.5, 1 μM ZnCl2, 1 mM DTT, 10% D2O (for the lock signal), and 1% DMSO-d6 in the absence and in the presence of 3 μM RNF5. WaterLOGSY experiments were recorded with the same parameters used in solubility assays, but with a higher number of scans (512); STD experiments were recorded with 128 scans, with two on (0.7 and 1 ppm) and one off (−50 ppm) resonance spectra, a Gaussian-shaped train pulse of 50 ms each was employed, with a total saturation time of the protein envelope of 5, 3, 2, 1.5, 1, or 0.5 s. A T1ρ filter of 2 ms was employed in STD experiments to eliminate the background signals from the protein. The STD spectrum was obtained by subtraction of the on-resonance spectrum from the off-resonance spectrum. Subtraction was performed by phase cycling to minimize artifacts arising from magnet and temperature instabilities.

[2] = target: T1, recombinant RNF5 (1–117) protein (Homo sapiens, UniProt Q99942); test: WaterLOGSY and STD NMR binding experiments; conditions: compound 50 μM, 3 μM RNF5 (1–117)
T1 construct: human RNF5 protein (aa 1–117) truncated to exclude the transmembrane domains; GST (followed by TEV protease site) (N, cleaved yes); host or cells: Escherichia coli BL21(DE3)
T1 sequence (Q99942 1-117): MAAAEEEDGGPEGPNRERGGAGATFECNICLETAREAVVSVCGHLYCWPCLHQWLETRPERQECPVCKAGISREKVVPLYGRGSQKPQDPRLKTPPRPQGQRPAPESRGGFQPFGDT
Source text: The bindings of compounds 12, 40, and 42 were initially evaluated by MicroScale Thermophoresis (MST) using a purified recombinant truncated form of RNF5 (aa 1–117), lacking the C-terminal transmembrane domains. The protein was covalently labeled with a red dye (NHS) on the primary amines (lysine residues). […] NMR experiments on the recombinant RNF5 form were further performed to test the direct binding of the three compounds to the protein with a more sensitive, label-free, independent approach. Analogs 12, 40, and 42 were tested at 50 μM in the absence and in the presence of 3 μM RNF5 (1–117) protein. […] Indeed, for all three compounds, the NMR signals of their methyls are present in the STD spectra, and in the WaterLOGSY spectra, their signals change from negative to positive in the presence of the protein, indisputably highlighting the formation of compound–protein binding events. […] It has to be noted that NMR is a very sensitive technique that allows detecting also compounds weakly binding to their target protein independent of the possible downstream biological effects. […]
All the NMR experiments were recorded at 298 K using a 5 mm CryoProbe QCI ^1H/^19F–^13C/^15N–D quadruple resonance, a shielded z-gradient coil, and an automatic sample changer SampleJet NMR system with temperature control. […] For all samples, a 1D ^1H NMR experiment was recorded, the water suppression was obtained using the standard NOESY (nuclear Overhauser effect spectroscopy) preset Bruker pulse sequence, with 64k data points, a spectral width (sw) of 30 ppm, 64 scans, acquisition time (aq) of 1.835 s, a relaxation delay (d1) of 4 s, and a mixing time of 10 ms. […] WaterLOGSY experiments were recorded with the same parameters used in solubility assays, but with a higher number of scans (512); STD experiments were recorded with 128 scans, with two on (0.7 and 1 ppm) and one off (−50 ppm) resonance spectra, a Gaussian-shaped train pulse of 50 ms each was employed, with a total saturation time of the protein envelope of 5, 3, 2, 1.5, 1, or 0.5 s. […]

[3] = PBS buffer, aqueous buffer, kinetic from dmso stock, theoretical concentration 20 μM
[4] = PBS buffer, aqueous buffer, kinetic from dmso stock, theoretical concentration 50 μM
[5] = PBS buffer, aqueous buffer, kinetic from dmso stock
[6] = PBS buffer, aqueous buffer, kinetic from dmso stock, theoretical concentration 20 μM, read-out: solubility in PBS buffer by NMR, 20 μM
[7] = theoretical concentration 50 μM

SMILES | solubility at 20 µM [1, 3] [µM] | solubility at 50 µM [1, 4] [µM] | solubility at 100 µM [1, 5] [µM] | aggregation in PBS buffer by NMR [1] | binding to RNF5 by WaterLOGSY and STD NMR [2] | solubility [1, 6] [µM] | solubility at 50 µM [1, 7] [µM] | solubility at 100 µM [1] [µM] | solubility ([1]; PBS buffer, aqueous buffer, kinetic from dmso stock, theoretical concentration 50 μM, read-out: solubility in PBS buffer by NMR, 50 μM) [µM] | solubility and aggregation in PBS (in words) ([1]; PBS buffer)
Cc1ns/c(=N\c2ccccn2)n1Cc1ccccc1 [Compound 42, (Z)-4-Benzyl-3-methyl-N-(pyridin-2-yl)-1,2,4-thiadiazol-5(4H)-imine] | 20 (≈ 5.65 µg/mL) | 40 (≈ 11.3 µg/mL) | 5 (≈ 1.41 µg/mL) | no | bind the recombinant RNF5 protein |  |  |  |  | no aggregation and solubility suitable for in vitro/biophysical binding experiments
Cc1ns/c(=N\C(=N\c2ccncc2)c2ccccc2)n1Cc1ccccc1 [Compound 40, (E)-N-((Z)-4-Benzyl-3-methyl-1,2,4-thiadiazol-5(4H)-ylidene)-N′-(pyridin-4-yl)benzimidamide] | 20 (≈ 7.71 µg/mL) |  |  | no | bind the recombinant RNF5 protein |  |  |  | 30 (≈ 11.6 µg/mL) | no aggregation and solubility suitable for in vitro/biophysical binding experiments
Cc1ns/c(=N\C(=N\c2ccccc2)c2ccccc2)n1Cc1ccc(C(=O)O)cc1 [Compound 12, 4-(((Z)-3-Methyl-5-(((E)-phenyl(phenylimino)methyl)imino)-1,2,4-thiadiazol-4(5H)-yl)methyl)benzoic Acid] | 20 (≈ 8.57 µg/mL) | 50 (≈ 21.4 µg/mL) | 100 (≈ 42.9 µg/mL) | no | bind the recombinant RNF5 protein |  |  |  |  | no aggregation and solubility suitable for in vitro/biophysical binding experiments

Continued, in another order:

solubility at 20 µM [1, 3] [µM] | solubility at 50 µM [1, 4] [µM] | solubility at 100 µM [1, 5] [µM] | aggregation in PBS buffer by NMR [1] | binding to RNF5 by WaterLOGSY and STD NMR [2] | solubility [1, 6] [µM] | solubility at 50 µM [1, 7] [µM] | solubility at 100 µM [1] [µM] | solubility ([1]; PBS buffer, aqueous buffer, kinetic from dmso stock, theoretical concentration 50 μM, read-out: solubility in PBS buffer by NMR, 50 μM) [µM] | SMILES | solubility and aggregation in PBS (in words) ([1]; PBS buffer)
 |  |  | no |  | < 5 | <5 | <5 |  | Cc1ns/c(=N\C(=N\c2ccccc2)c2ccccc2)n1Cc1ccccc1 [inh-2, reference compound] | 
 |  |  | no |  | < 5 | <5 | <5 |  | COc1cccc(Cn2c(C)ns/c2=N\C(=N\c2ccccc2)c2ccccc2)c1 [Compound 16, (E)-N-((Z)-4-(3-Methoxybenzyl)-3-methyl-1,2,4-thiadiazol-5(4H)-ylidene)-N′-phenylbenzimidamide] | 
